# Data published in patent US12458688B2, “Epitopes” (Scancell Limited, priority 2018, dated 2025).
# Read-outs that look alike come from different tables or passages of the source. Where no end group is shown, it is not given here. [ ]: non-standard residue; d: D form. hCit = NC(=O)NCCCC[C@H](N)C(=O)O
# T1: HLA-DP4 (Homo sapiens, UniProt P04440+P20036)
# T1 sequence (P20036 29-260): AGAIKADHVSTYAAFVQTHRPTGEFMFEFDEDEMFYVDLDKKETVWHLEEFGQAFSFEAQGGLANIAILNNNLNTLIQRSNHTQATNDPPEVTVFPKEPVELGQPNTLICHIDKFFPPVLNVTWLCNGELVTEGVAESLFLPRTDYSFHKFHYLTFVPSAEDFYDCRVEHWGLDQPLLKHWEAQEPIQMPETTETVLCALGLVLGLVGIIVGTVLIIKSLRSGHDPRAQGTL
# T1 sequence (P04440 30-258): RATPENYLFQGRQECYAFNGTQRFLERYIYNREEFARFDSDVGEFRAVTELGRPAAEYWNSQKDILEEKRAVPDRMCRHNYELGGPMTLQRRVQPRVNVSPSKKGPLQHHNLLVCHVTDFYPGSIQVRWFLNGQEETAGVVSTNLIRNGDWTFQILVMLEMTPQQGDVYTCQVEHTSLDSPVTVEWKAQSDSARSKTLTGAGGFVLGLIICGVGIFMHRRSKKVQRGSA
# B1: Aldolase A 289-307 Hcit (peptide)
# peptide: [hCit]CPLL[hCit]PWALTFSYGRALQ
# Key:
# HLA-DP4 (human) = test: DP4 competition ELISA; competitor biotinylated Hep B peptide; 5 fold excess of unlabelled peptide
# HLA-HHDII/DP4 mice = test: Ex vivo IFNγ ELISpot after peptide immunisation, HHDII/DP4 mice; format: in vivo, mouse; settings: for IFNγ ELISpot response: 3 immunisations with CpG/MPLA, day 21
# Experimental: (§1) C57BL/6 mice (Charles River, UK), HLA-DR4 mice (Model #4149, Taconic, USA), HLA-A2/DR1 (HHDII/DR1, Pasteur Institute), HLA-A2.1+/+HLA-DP4+/+hCD4+/+ (HLA-HHDII/DP4) transgenic mice (EM: 02221, European Mouse Mutant Archive) described in patent WO2013/017545 A1 (EMMA repository, France) were used, aged between 8 and 12 weeks. Peptides were dissolved in PBS to 1 mg/ml and then emulsified (a series of dilutions) with CpG ODN 1826 and MPLA 6 μg/mouse of each (Invivogen, UK). Peptides (25 μg/mouse) were injected subcutaneously at the base of the tail. Mice were immunised at days 1, 7 and 14 for peptide immunisation. Spleens were removed for analysis at day 21 unless stated otherwise.
# (§2) ELISpot assays were performed using murine IFNγ, IL-17 and IL-10 capture and detection reagents according to the manufacturer's instructions (Mabtech, Sweden). In brief, anti-IFNγ, IL-17 and IL-10 specific antibodies were coated onto wells of 96-well Immobilin-P plate. Synthetic peptides (at various concentrations) and 5×10^5 per well splenocytes were added to wells of the plate in quadruplicate Tumour target cells were added where relevant at 5×10^4/well in triplicate and plates incubated for 40 hrs at 37° C. After incubation, captured IFNγ, IL-10 and IL-17 were detected by biotinylated anti-IFNγ, IL-10 and IL-17 antibodies and developed with a streptavidin alkaline phosphatase and chromogenic substrate. Lipopolysaccharide (LPS; 5 μg/ml) was used as a positive control. For MHC blocking studies, anti-CD4 blocking antibody (GK1.5) or anti-CD4 blocking antibody (RPA-T4) for HHDII/DP4 mice which express human CD4 and anti-CD8 blocking antibody (2.43) from Bioxcell were used at 20 μg/ml. Spots were analysed and counted using an automated plate reader (Cellular Technologies Ltd).
# Screening was performed to identify potential homocitrullinated ALDOA epitopes in transgenic HHDII/DP4 and HHDII/DR1 mice. Mice were immunised with pools of human homocitrullinated peptides. […] Each pool was administered as three immunisations containing 20 μg of each peptide and CpG/MPLA as an adjuvant. After 21 days the mice were culled and the immune responses to each peptide within the immunising pool were assessed by ex vivo ELISpot in HHDII/DP4 (FIG. 4b) and HHDII/DR1 mice (FIG. 4d). […] Our predictions therefore identified 3/5 peptides which could induce a T cell response. […] Of the responding peptides ALDOA 74-93 Hcit and 140-157 Hcit peptides are homologous in human and mice therefore these two peptides were selected for further investigation. Minimal IL-10 (FIG. 6b) or IL-17 (FIG. 6c) responses were seen to Aldolase peptides in HHDII/DP4 mice.
# Using this combination of predictions, 5 CyK8 peptides containing homocitrulline were synthesised (Table 4). Screening was performed to identify potential homocitrullinated Cyk8 epitopes in transgenic HHDII/DP4. Mice were immunised with pools of human homocitrullinated peptides. […] Each pool was administered as three immunisations containing 20 μg of each peptide and CpG/MPLA as an adjuvant. After 21 days the mice were culled and the immune responses to each peptide within the immunising pool were assessed by ex vivo ELISpot in HHDII/DP4 (FIG. 10a). […] The responses to CyK8 101-120 Hcit, 112-131 Hcit, 182-201 Hcit, 371-388 Hcit and 381-399 Hcit immunisation were characterised for cross reactivity to the wt peptide sequence. […] Thus a key characteristic of immunogenic peptides is they express homocitrulline. All of these peptides (100%) were immunogenic. Thus a high predicted HLA-DP4 binding affinity (<30), the presence of homocitrulline residues in the core region, the peptide being amphipathic in nature with a predominantely spiral conformational structure upon 3D modelling, and the existence of homology between the mouse and human sequences defines immunogenicity. When this model was applied retrospectively to include the vimentin and ALDOA peptides 8/9 (88%) were correctly predicted. […]
# HLA-DP4 = target: T1, HLA-DP4; test: DP4 competition assay with biotinylated Hep B peptide; settings: inhibition of biotinylated Hep B binding to HLA-DP4; 5 fold excess test peptide, equal amount for unlabelled Hep B
# Experimental: 2×T175 gave 2.5×10^7 B16 HHDII/DP4 (B16F1 β2M H2Ab1 dKO A35 HHDII/DP4 H7/2E9/F9 p14) cells. This was enough for 5 preps using the following protocol with Mem-PER™ Plus Membrane Protein Extraction Kit (thermo-scientific cat #89842).
# 5×10^6 cells were resuspended in the growth media by scraping the cells off the surface of the plate with a cell scraper and then centrifuged at 300 g for 5 mins. The cell pellet was washed with 3 ml of Cell Wash Solution and centrifuged at 300 g for 5 mins. The supernatant was removed and discarded. The cells were resuspended in 1.5 ml of Cell Wash Solution and transfer to a 2 ml centrifuge tube and centrifuged at 300 g for 5 mins. The supernatant was discarded. 0.75 ml of permeabilization buffer was added to the cell pellet and vortexed briefly to obtain a homogeneous cell suspension and incubated for 10 mins at 4° C. with constant mixing. The permeabilized cells were centrifuge for 15 mins at 16,000g before carefully removing the supernatant containing cytosolic proteins and transfering to a new tube. 0.5 ml of solubilization buffer was added to the pellet and resuspend prior to incubating at 4° C. for 30 minutes with constant mixing prior to centrifugation at 16,000g for 15 mins at 4° C. The supernatant containing solubilized membrane and membrane-associated proteins was transfered to a new tube. Aliquots were frozen at −80° C. for future use. 12.5 μl Halt™ Protease and Phosphatase Inhibitor Cocktail, EDTA-free (100X) thermo-scientific (Catalog number 78445) was added prior to freezing.
# High binding plates were coated with streptavidin (Sigma S4762 at 1 mg/ml) 1/500 in PBS and incubated overnight at 4° C. The plates were blocked with 1% BSA in PBS for 4 hrs at room temp and washed 3×PBS/0.5% Tweenx. 450 μl of cell prep lysate (B16F1 B16 HHDII/DP4 H7/2E9/F9) was mixed with 50 μg test peptide (see below) or 10 μg of unlabelled Hep B peptide for 30 mins. 10 μg biotinylated Hep B peptide was added & incubated for 4 hrs at 37° C.:
# Lysate/peptide mix was added to the plates at 100 μl/well and incubated for 4 hrs at room temperature. Plates were washed 3× with PBS/0.5% Tween. 100 μl per well of Leinco anti-Human HLA-DP4 clone B7/21 #H260 1 mg/ml at 1/500 dilution in 1% BSA/PBS was added and incubated for 1 hr at room temperature prior to washing 3× PBS/0.5% Tween. Goat anti-mouse lgG3-HRP at 0.5 mg/ml 1/500 100 μl per well (Invitrogen #M32607) diluted in 1% BSA/PBS) was added for 1 hr at room temperature prior to washing and adding 150 μl of TMB substrate to each well. The reaction was stopped with 50 μl of 2N H2SO4 and plates read plate at 450 nm.
# To ensure that the biotinylation of Hep B had not interfered with its binding, HLA-DP4 was incubated with equal amounts of biotinylated and unlabelled Hep B peptide. Unlabelled peptide competed equally reducing binding by 47% (FIG. 53b).
# The biotinylated HepB peptide was then incubated with a 5 fold excess of the unlabelled homocitrulline peptides. All peptides inhibited the binding of biotinylated Hep B to HLA-DP4 but to varying levels (FIG. 53c-e).
# HLA-HHDII/DR1 mice = test: Ex vivo IFNγ ELISpot after peptide immunisation, HHDII/DR1 mice; format: in vivo, mouse; settings: for IFNγ ELISpot response: 3 immunisations with CpG/MPLA, day 21
# Experimental: as §1, §2
# Screening was performed to identify potential homocitrullinated vimentin epitopes in mice. Mice were immunised with pools of homocitrullinated peptides. […] Each pool was administered as three immunisations containing 20 μg of each peptide and CpG/MPLA as an adjuvant on day 1, 8 and 15. On day 21 the mice were culled and the immune responses to each peptide within the immunising pool were assessed by ex vivo ELISpot. Given that different mouse strains have different MHC repertoires a number of strains were used for screening. Peptide responses were assessed in transgenic strains expressing human DR4 or HHDII/DR1 in a C57BL/6 background (see methods). […]
# The five selected homocitrullinated Cyk8 peptides were also screened in HHDII/DR1 transgenic mice. […] Response to Cyk8 112Hcit peptide in the HHDII/DR1 mice was lost in the presence of CD8 blocking antibody but less effect of the CD4 blocking antibody was seen (FIG. 12b). […] Responses to homocitrullinated Cyk8 peptides show both CD4 and CD8 mediated responses.
# [1] = splenocytes after 7 days culture
Molecule,% inhibition (HLA-DP4 (human)),IFNγ ELISpot response (HLA-HHDII/DP4 mice),IFNγ response in presence of CD4 blocking antibody (HLA-HHDII/DP4 mice; [1]),further results
Aldolase A 74-93 WT (peptide),27%,–,–,–
Aldolase A 140-157 WT (peptide),29%,–,–,–
Aldolase A 238-256 Hcit (peptide),73%,–,–,–
Cytokeratin 8 182-202 Hcit (peptide),61%,–,–,–
Cytokeratin 8 371-388 Hcit (peptide),72%,–,–,–
DVAASEFFRSG-Hcit-YDLDF-Hcit-SP [Alpha enolase 245-264 Hcit],–,stimulation of IFNγ responses,lost,–
EDFSETLTRA-Hcit-FEELNMDLFR [BiP 316-336 Hcit],–,stimulation of IFNγ responses,loss of response,–
EELNMDLFRSTM-Hcit-PVQ-Hcit-VL [BiP 328-346 Hcit],–,stimulation of IFNγ responses,loss of response,cross reactivity of Hcit response to wt peptide (HLA-HHDII/DP4 mice): significantly higher
"GFFLLTRILTIPQ [HepB, reference compound]",–,–,–,% inhibition (HLA-DP4): 47%
GGSLP-Hcit-VEA-Hcit-FINYV-Hcit-NCFR [NPM 258-277 Hcit],–,stimulation of IFNγ responses,blocking of the response,cross reactivity of Hcit response to wt peptide (HLA-HHDII/DP4 mice): significantly higher; IFNγ response in presence of CD8 blocking antibody (HLA-HHDII/DP4 mice; [1]): not with the CD8 blocking antibody
Hcit-MALDIEIATYR-Hcit-LLEGEE [Vimentin 390-408 Hcit],–,stimulation of IFNγ responses,loss of response,–
Hcit-MLET-Hcit-WSL [Cyk8 117-125Hcit],–,generation of responses,–,IFNγ response in presence of CD4 blocking antibody (HLA-HHDII/DP4 mice): not in the presence of CD4 blocking antibody; IFNγ response in presence of CD8 blocking antibody (HLA-HHDII/DP4 mice): blocked; IFNγ response in presence of CD8 blocking antibody (HLA-HHDII/DR1 mice): lost; IFNγ ELISpot response (HLA-HHDII/DR1 mice): generation of responses
"IGGVILFHETLYQKADDGRP [Aldolase A 74-93 WT, reference compound]",–,–,–,% inhibition (HLA-DP4): 27%
"KDGADFAKWRCVLKIGEH [Aldolase A 140-157 WT, reference compound]",–,–,–,% inhibition (HLA-DP4): 29%
"LEQQNKMLETKWSLLQQQKT [Cyk8 112 wt, reference compound]",–,–,–,IFNγ ELISpot response (HLA-HHDII/DR1 mice): no specific response
PLRPQNYLFGCEL-Hcit-AD-Hcit- [NPM 11-27 Hcit],–,stimulation of IFNγ responses,blocking of the response,IFNγ response in presence of CD8 blocking antibody (HLA-HHDII/DP4 mice; [1]): not with the CD8 blocking antibody
RSERLA-Hcit-YNQLLRIEEELGS [Alpha enolase 400-419 Hcit],–,stimulation of IFNγ responses,lost,–
VLAAVY-Hcit-AL [Aldolase 209-217],–,stimulation of IFNγ responses,–,IFNγ response in presence of CD8 blocking antibody (HLA-HHDII/DP4 mice; [1]): lost; cross reactivity of Hcit response to wt peptide (HLA-HHDII/DR1 mice): lower reactivity; IFNγ ELISpot response (HLA-HHDII/DR1 mice): strong responses
Vimentin 116-135 WT (peptide),48%,–,–,–
YVTE-Hcit-VLAAVY-Hcit-ALSD [Aldolase 204-219 Hcit],–,stimulation of IFNγ responses,partial loss of response,cross reactivity of Hcit response to wt peptide (HLA-HHDII/DP4 mice): significantly higher; IFNγ response in presence of CD8 blocking antibody (HLA-HHDII/DP4 mice; [1]): partial loss of response; cross reactivity of Hcit response to wt peptide (HLA-HHDII/DR1 mice): lower reactivity; IFNγ ELISpot response (HLA-HHDII/DR1 mice): strong responses
B1,45%,–,–,–
